Laboratory results published in ChEMBL document CHEMBL3856255, “Synthesis and biological evaluation of Hederacolchiside A1 derivatives as anticancer agents” (Bioorg Med Chem Lett, 2016).
pIC50: −log10 of the molar value.

Tests used:
[1] = Cytotoxicity against human SMMC7721 cells assessed as reduction in cell viability after 48 hrs by MTT assay; format: functional, cell-based; conditions: SMMC-7721, 48 h
[2] = Cytotoxicity against human HCT116 cells assessed as reduction in cell viability after 48 hrs by MTT assay; format: functional, cell-based; conditions: HCT-116, 48 h
Mus musculus [3] = experiment: Toxicity in mouse assessed as death time administered as submicron emulsions through caudal vein injection dosed daily; format: organism-based; conditions: in vivo, iv
[4] = Cytotoxicity against human SGC7901 cells assessed as reduction in cell viability after 48 hrs by MTT assay; format: functional, cell-based; conditions: SGC-7901, 48 h
[5] = Cytotoxicity against human SKOV3 cells assessed as reduction in cell viability after 48 hrs by MTT assay; format: functional, cell-based; conditions: SK-OV-3, 48 h
[6] = Cytotoxicity against human U251 cells assessed as reduction in cell viability after 48 hrs by MTT assay; format: functional, cell-based; conditions: U-251, 48 h
[7] = Cytotoxicity against human NCI-H460 cells assessed as reduction in cell viability after 48 hrs by MTT assay; format: functional, cell-based; conditions: NCI-H460, 48 h
Mus musculus [8] = experiment: Toxicity in nude mouse xenografted with […] cells assessed as body weight level at 20 mg/kg administered as submicron emulsions through caudal vein injection dosed daily for 14 days (reference value: 42.63 +/- 5.81 g); format: organism-based; conditions: in vivo, iv, 336 h
Mus musculus [9] = experiment: Toxicity in nude mouse xenografted with […] cells assessed as induction of mouse mortality at 20 mg/kg administered as submicron emulsions through caudal vein injection dosed daily for 14 days; format: organism-based; conditions: in vivo, iv, 336 h
[10] = Antitumor activity against H22 cells xenografted in nude mouse assessed as tumor growth inhibition at 20 mg/kg administered as submicron emulsions through caudal vein injection dosed daily for 14 days; format: functional; conditions: H22, 336 h; read-out: TGI
[11] = Antitumor activity against H22 cells xenografted in nude mouse assessed as tumor growth inhibition at 10 mg/kg administered as submicron emulsions through caudal vein injection dosed daily for 14 days; format: functional; conditions: H22, 336 h; read-out: TGI
Mus musculus [12] = experiment: Toxicity in nude mouse xenografted with […] cells assessed as body weight level at 10 mg/kg administered as submicron emulsions through caudal vein injection dosed daily for 14 days (reference value: 42.63 +/- 5.81 g); format: organism-based; conditions: in vivo, iv, 336 h
Mus musculus [13] = experiment: Toxicity in nude mouse xenografted with […] cells assessed as induction of mouse mortality at 10 mg/kg administered as submicron emulsions through caudal vein injection dosed daily for 14 days; format: organism-based; conditions: in vivo, iv, 336 h
[14] = Cytotoxicity against human SMMC7721 cells assessed as reduction in cell viability after 24 hrs by MTT assay; format: functional, cell-based; conditions: SMMC-7721, 24 h
[15] = Cytotoxicity against human NCI-H460 cells assessed as reduction in cell viability after 24 hrs by MTT assay; format: functional, cell-based; conditions: NCI-H460, 24 h
[16] = Cytotoxicity against human U251 cells assessed as reduction in cell viability after 24 hrs by MTT assay; format: functional, cell-based; conditions: U-251, 24 h
[17] = Cytotoxicity against human SKOV3 cells assessed as reduction in cell viability after 24 hrs by MTT assay; format: functional, cell-based; conditions: SK-OV-3, 24 h
Mus musculus [18] = experiment: Toxicity in nude mouse xenografted with […] cells assessed as body weight level at 6 mg/kg administered as submicron emulsions through caudal vein injection dosed every 3 days for 14 days (reference value: 42.63 +/- 5.81 g); format: organism-based; conditions: in vivo, iv
[19] = Cytotoxicity against human HCT116 cells assessed as reduction in cell viability after 24 hrs by MTT assay; format: functional, cell-based; conditions: HCT-116, 24 h
[20] = Toxicity in mouse assessed as tolerance dose administered as submicron emulsions through caudal vein injection dosed daily for 7 days; format: organism-based; conditions: in vivo, iv, read-out: Activity
[21] = Antitumor activity against H22 cells xenografted in nude mouse assessed as tumor growth inhibition at 6 mg/kg administered as submicron emulsions through caudal vein injection dosed every 3 days for 14 days; format: functional; conditions: read-out: TGI
[22] = Cytotoxicity against human SGC7901 cells assessed as reduction in cell viability after 24 hrs by MTT assay; format: functional, cell-based; conditions: SGC-7901, 24 h

SMILES | pIC50 [1] | pIC50 [2] | Time (Mus musculus [3]) [days] | pIC50 [4] | pIC50 [5] | pIC50 [6] | pIC50 [7] | other results
C[C@@H]1O[C@@H](O[C@H]2[C@H](O[C@H]3CC[C@]4(C)[C@H]5CC=C6[C@@H]7CC(C)(C)CC[C@]7(C(=O)OCC(=O)O)CC[C@@]6(C)[C@]5(C)CC[C@H]4C3(C)C)OC[C@H](O[C@@H]3O[C@H](CO)[C@@H](O)[C@H](O)[C@H]3O)[C@@H]2O)[C@H](O)[C@H](O)[C@H]1O | 5.66 | 5.41 | 7 | 5.48 | 5.57 | 5.70 | 5.74 | 
C[C@@H]1O[C@@H](O[C@H]2[C@H](O[C@H]3CC[C@]4(C)[C@H]5CC=C6[C@@H]7CC(C)(C)CC[C@]7(C(=O)OCCCO)CC[C@@]6(C)[C@]5(C)CC[C@H]4C3(C)C)OC[C@H](O[C@@H]3O[C@H](CO)[C@@H](O)[C@H](O)[C@H]3O)[C@@H]2O)[C@H](O)[C@H](O)[C@H]1O | < 4.00 | 4.41 |  | 4.33 | < 4.00 | 4.36 | 4.25 | 
CCOC(=O)[C@]12CCC(C)(C)C[C@H]1C1=CC[C@@H]3[C@@]4(C)CC[C@H](O[C@@H]5OC[C@H](O[C@@H]6O[C@H](CO)[C@@H](O)[C@H](O)[C@H]6O)[C@H](O)[C@H]5O[C@@H]5O[C@@H](C)[C@H](O)[C@@H](O)[C@H]5O)C(C)(C)[C@@H]4CC[C@@]3(C)[C@]1(C)CC2 | 5.46 | 5.28 |  | 5.31 | 5.24 | 5.80 | 5.57 | 
C[C@@H]1O[C@@H](O[C@H]2[C@H](O[C@H]3CC[C@]4(C)[C@H]5CC=C6[C@@H]7CC(C)(C)CC[C@]7(C(=O)OCCO)CC[C@@]6(C)[C@]5(C)CC[C@H]4C3(C)C)OC[C@H](O[C@@H]3O[C@H](CO)[C@@H](O)[C@H](O)[C@H]3O)[C@@H]2O)[C@H](O)[C@H](O)[C@H]1O | 4.45 | 4.59 |  | 4.69 | 4.71 | 4.87 | 4.33 | 
C[C@@H]1O[C@@H](O[C@H]2[C@H](O[C@H]3CC[C@]4(C)[C@H]5CC=C6[C@@H]7CC(C)(C)CC[C@]7(C(=O)OCCC(=O)O)CC[C@@]6(C)[C@]5(C)CC[C@H]4C3(C)C)OC[C@H](O[C@@H]3O[C@H](CO)[C@@H](O)[C@H](O)[C@H]3O)[C@@H]2O)[C@H](O)[C@H](O)[C@H]1O | 5.57 | 4.95 |  | 5.19 | 5.27 | 5.34 | 5.01 | 
CNC(=O)[C@]12CCC(C)(C)C[C@H]1C1=CC[C@@H]3[C@@]4(C)CC[C@H](O[C@@H]5OC[C@H](O[C@@H]6O[C@H](CO)[C@@H](O)[C@H](O)[C@H]6O)[C@H](O)[C@H]5O[C@@H]5O[C@@H](C)[C@H](O)[C@@H](O)[C@H]5O)C(C)(C)[C@@H]4CC[C@@]3(C)[C@]1(C)CC2 | < 4.00 | 4.38 |  | 4.25 | < 4.00 | 4.33 | < 4.00 | 
CCCOC(=O)[C@]12CCC(C)(C)C[C@H]1C1=CC[C@@H]3[C@@]4(C)CC[C@H](O[C@@H]5OC[C@H](O[C@@H]6O[C@H](CO)[C@@H](O)[C@H](O)[C@H]6O)[C@H](O)[C@H]5O[C@@H]5O[C@@H](C)[C@H](O)[C@@H](O)[C@H]5O)C(C)(C)[C@@H]4CC[C@@]3(C)[C@]1(C)CC2 | 5.33 | 5.01 |  | 4.92 | 4.91 | 5.74 | 5.08 | 
C[C@@H]1O[C@@H](O[C@H]2[C@H](O[C@H]3CC[C@]4(C)[C@H]5CC=C6[C@@H]7CC(C)(C)CC[C@]7(C(=O)OCCCC(=O)O)CC[C@@]6(C)[C@]5(C)CC[C@H]4C3(C)C)OC[C@H](O[C@@H]3O[C@H](CO)[C@@H](O)[C@H](O)[C@H]3O)[C@@H]2O)[C@H](O)[C@H](O)[C@H]1O | 5.08 | 4.69 |  | 5.13 | 5.02 | 4.93 | 4.85 | 
COC(=O)[C@]12CCC(C)(C)C[C@H]1C1=CC[C@@H]3[C@@]4(C)CC[C@H](O[C@@H]5OC[C@H](O[C@@H]6O[C@H](CO)[C@@H](O)[C@H](O)[C@H]6O)[C@H](O)[C@H]5O[C@@H]5O[C@@H](C)[C@H](O)[C@@H](O)[C@H]5O)C(C)(C)[C@@H]4CC[C@@]3(C)[C@]1(C)CC2 | 5.46 | 5.34 | > 7 | 5.77 | 5.51 | 5.96 | 5.89 | Activity (Mus musculus [8]): 39.74 g; Activity (Mus musculus [9]): Non-Toxic; inhibition in vivo at 20 mg/kg [10]: 46.8%; inhibition in vivo at 10 mg/kg [11]: 36.2%; Activity (Mus musculus [12]): 41.05 g; Activity (Mus musculus [13]): Non-Toxic
C[C@@H]1O[C@@H](O[C@H]2[C@H](O[C@H]3CC[C@]4(C)[C@H]5CC=C6[C@@H]7CC(C)(C)CC[C@]7(C(=O)O)CC[C@@]6(C)[C@]5(C)CC[C@H]4C3(C)C)OC[C@H](O[C@@H]3O[C@H](CO)[C@@H](O)[C@H](O)[C@H]3O)[C@@H]2O)[C@H](O)[C@H](O)[C@H]1O [HEDERACOLCHISIDE A1] | 5.55 | 5.08 | < 0.042 | 5.77 | 5.48 | 5.66 | 5.43 | pIC50 [14]: 5.55; pIC50 [15]: 5.43; pIC50 [16]: 5.66; pIC50 [17]: 5.89; Activity (Mus musculus [18]): 41.76 g; pIC50 [19]: 5.08; MTD at 168 h [20]: < 8 mg/kg; inhibition in vivo at 6 mg/kg [21]: 47.5%; pIC50 [22]: 5.77
